This assay has as its target human Plasma Kallikrein (Homo sapiens (Human), UniProt P03952). Description: In vitro enzyme inhibition of human plasma kallikrein (PFR-AMC cleavage). In kind it is biochemical. As for the experimental part: The ability of the compounds disclosed herein to inhibit human plasma kallikrein activity was quantified according to the procedures below.
A 10 mM solution of the test compound was made in DMSO. […] A control tube containing only DMSO is included. 16 μL of each compound test solution was combined with 384 μL of assay buffer (50 mM Tris-HCl pH 7.5, 150 mM NaCl, 0.01% Triton X-100) to yield a “4× test compound buffer stock”.
These solutions are hereby referred to as 4×hPK and 2×PFR-AMC, respectively.
50 μL was removed from this mixture and placed into duplicate wells on a Microfluor 1Black U-bottom microtiter plate (Thermo Scientific). This plate was incubated for 5 minutes at 37° C. To each well, 50 μL of pre-warmed 2×PFR-AMC was added to start the enzymatic reaction. Cleavage of PFR-AMC was monitored in a Biotek Synergy H4 reader set at 37° C. Readings are taken every 43 seconds for 1 hour. […] The IC50 is calculated using the Gen5 (Biotek Instruments).
The ability of the compounds in Table 3 to inhibit human plasma kallikrein activity was determined.

Where [1] appears, read: human plasma kallikrein, Pro-Phe-Arg-AMC substrate, 37° C., read-out: hPK IC50.

pIC50: −log10 of the molar value. Read-outs that look alike come from different tables or passages of the source. Bounds are passed on as bounds.

human Plasma Kallikrein, sequence (P03952 20-638): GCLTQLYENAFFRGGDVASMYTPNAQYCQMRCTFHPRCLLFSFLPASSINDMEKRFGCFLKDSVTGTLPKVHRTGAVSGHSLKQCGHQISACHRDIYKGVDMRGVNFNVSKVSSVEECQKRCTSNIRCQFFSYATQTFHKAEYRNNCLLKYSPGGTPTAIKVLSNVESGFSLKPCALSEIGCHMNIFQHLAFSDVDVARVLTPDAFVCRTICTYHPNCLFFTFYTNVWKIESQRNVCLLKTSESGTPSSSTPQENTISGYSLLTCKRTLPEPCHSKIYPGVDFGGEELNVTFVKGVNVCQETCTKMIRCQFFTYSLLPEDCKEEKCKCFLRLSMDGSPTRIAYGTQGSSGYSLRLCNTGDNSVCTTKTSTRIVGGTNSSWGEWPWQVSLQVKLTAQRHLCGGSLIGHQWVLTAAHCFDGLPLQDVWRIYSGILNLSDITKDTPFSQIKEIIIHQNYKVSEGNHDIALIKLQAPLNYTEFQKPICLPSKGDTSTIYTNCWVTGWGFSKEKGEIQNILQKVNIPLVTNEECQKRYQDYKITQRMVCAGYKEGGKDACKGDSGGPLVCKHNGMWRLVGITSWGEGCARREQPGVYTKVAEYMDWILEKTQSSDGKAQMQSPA

As for `O=C(NCc1cc2cc[nH]c2cc1F)c1ccnc(Cc2ccc3ncc(Cl)cc3c2)c1` [Example 41, 2-(3-chloro-quinolin-6-ylmethyl)-N-(6-fluoro-1H-indol-5-ylmethyl)-isonicotinamide], the pIC50 (usually the negative decadic logarithm of the IC50, by convention in mol/L) under setting [1] was more than 7.00. On the same count and under the same terms, next, `CNc1ccc(CNC(=O)c2ccnc(Cc3ccc4ncc(Cl)cc4c3)c2)c(C)n1` [Example 42, 2-((3-chloroquinolin-6-yl)methyl)-N-((2-methyl-6-(methylamino)pyridin-3-yl)methyl)isonicotinamide]: 6.00 to 7.00; `Nc1ccc(CNC(=O)c2ccnc(Cc3ccc4ncc(Cl)cc4c3)c2)c(C2CC2)n1` [Example 43, N-((6-amino-2-cyclopropylpyridin-3-yl)methyl)-2-((3-chloroquinolin-6-yl)methyl)isonicotinamide]: 6.00 to 7.00; `Cc1nc(N(C)C)ccc1CNC(=O)c1ccnc(Cc2ccc3ncc(Cl)cc3c2)c1` [Example 44, 2-((3-chloroquinolin-6-yl)methyl)-N-((6-(dimethylamino)-2-methylpyridin-3-yl)methyl)isonicotinamide]: less than 5.00. With `NCc1ccc2cc(Cc3cc(C(=O)NCc4cc5c(Cl)c[nH]c5cc4F)ccn3)ccc2n1` [Example 45, 2-((2-(aminomethyl)quinolin-6-yl)methyl)-N-((3-chloro-6-fluoro-1H-indol-5-yl)methyl)isonicotinamide], the pIC50 under setting [1] was 6.00 to 7.00. Same read-out and setting: next, `Cc1cc(N)nc(C)c1CNC(=O)c1ccnc(Cc2ccc3nc(CN)ccc3c2)c1` [Example 46, N-((6-amino-2,4-dimethylpyridin-3-yl)methyl)-2-((2-(aminomethyl)quinolin-6-yl)methyl)isonicotinamide]: more than 7.00; `Cc1cnc2ccc(Cc3cc(C(=O)NCc4ccc5c(N)noc5c4)ccn3)cc2c1` [Example 47, N-((3-aminobenzo[d]isoxazol-6-yl)methyl)-2-((3-methylquinolin-6-yl)methyl)isonicotinamide]: 5.00 to 6.00; `Cc1ccc2ncc(Cc3cc(C(=O)NCc4ccc5c(N)noc5c4)ccn3)cc2c1` [Example 48, N-((3-aminobenzo[d]isoxazol-6-yl)methyl)-2-((6-methylquinolin-3-yl)methyl)isonicotinamide]: less than 5.00. Same read-out and setting: next, `N#Cc1cc(Cc2cc(C(=O)NCc3cc4c(Cl)c[nH]c4cc3F)ccn2)cc2cc(Cl)cnc12` [Example 49, N-((3-chloro-6-fluoro-1H-indol-5-yl)methyl)-2-((3-chloro-8-cyanoquinolin-6-yl)methyl)isonicotinamide]: more than 7.00.

`N#Cc1cc(Cc2cc(C(=O)NCc3ccc4[nH]cc(Cl)c4c3F)ccn2)cc2cc(Cl)cnc12` [Example 51, N-((3-chloro-4-fluoro-1H-indol-5-yl)methyl)-2-((3-chloro-8-cyanoquinolin-6-yl)methyl)isonicotinamide]: the pIC50 under setting [1] is more than 7.00. On the same count and under the same terms, the value for `N#Cc1cc(Cc2cc(C(=O)NCc3cc4cc[nH]c4cc3F)ccn2)cc2cc(Cl)cnc12` [Example 52, 2-((3-chloro-8-cyanoquinolin-6-yl)methyl)-N-((6-fluoro-1H-indol-5-yl)methyl)isonicotinamide] was more than 7.00. As to `Cc1cc(N)ncc1CNC(=O)c1ccnc(Cc2cc(C#N)c3ncc(Cl)cc3c2)c1` [Example 53, N-((6-amino-4-methylpyridin-3-yl)methyl)-2-((3-chloro-8-cyanoquinolin-6-yl)methyl)isonicotinamide], the pIC50 was 6.00 to 7.00. As for `N#Cc1cc(Cc2cc(C(=O)NCc3n[nH]c4ccc(Cl)cc34)ccn2)cc2cc(Cl)cnc12` [Example 54, 2-(3-chloro-8-cyano-quinolin-6-ylmethyl)-N-(5-chloro-1H-indazol-3-ylmethyl)-isonicotinamide], under setting [1], the pIC50 was more than 7.00.

For the molecule `N#Cc1cc(Cc2cc(C(=O)NCc3cnc4[nH]cc(Cl)c4c3)ccn2)cc2cc(Cl)cnc12` [Example 55, 2-(3-chloro-8-cyano-quinolin-6-ylmethyl)-N-(3-chloro-1H-pyrrolo[2,3-b]pyridin-5-ylmethyl)-isonicotinamide], the pIC50 under setting [1] was more than 7.00. On the same count and under the same terms, next, `Cc1cc(N)ncc1CNC(=O)c1ccnc(Cc2cc(C(N)=O)c3ncc(Cl)cc3c2)c1` [Example 63, 6-((4-(((6-amino-4-methylpyridin-3-yl)methyl)carbamoyl)pyridin-2-yl)methyl)-3-chloroquinoline-8-carboxamide]: more than 7.00; `Cc1cnc2c(C#N)cc(Cc3cc(C(=O)NCc4ccc5[nH]cc(Cl)c5c4F)ccn3)cc2c1` [Example 74, N-((3-chloro-4-fluoro-1H-indol-5-yl)methyl)-2-((8-cyano-3-methylquinolin-6-yl)methyl)isonicotinamide]: more than 7.00. For the molecule `Cc1cnc2c(C#N)cc(Cc3cc(C(=O)NCc4n[nH]c5ccc(Cl)cc45)ccn3)cc2c1` [Example 75, N-((5-chloro-1H-indazol-3-yl)methyl)-2-((8-cyano-3-methylquinolin-6-yl)methyl)isonicotinamide], under setting [1], the pIC50 is more than 7.00.

With `Cc1cnc2c(C#N)cc(Cc3cc(C(=O)NCc4cc5cc[nH]c5cc4F)ccn3)cc2c1` [Example 76, 2-((8-cyano-3-methylquinolin-6-yl)methyl)-N-((6-fluoro-1H-indol-5-yl)methyl)isonicotinamide], under setting [1], the negative-log IC50 (pIC50) is more than 7.00. Same read-out and setting: the value for `Cc1cc(N)ncc1CNC(=O)c1ccnc(Cn2cc3cc(Cl)ccc3cc2=O)c1` [Example 85, N-((6-amino-4-methylpyridin-3-yl)methyl)-2-((7-chloro-3-oxoisoquinolin-2(3H)-yl)methyl)isonicotinamide] was 6.00 to 7.00. On the same count and under the same terms, the value for `Cc1nc(N)ccc1CNC(=O)c1ccnc(Cn2cc3cc(Cl)ccc3cc2=O)c1` [Example 86, N-((6-amino-2-methylpyridin-3-yl)methyl)-2-((7-chloro-3-oxoisoquinolin-2(3H)-yl)methyl)isonicotinamide] was 6.00 to 7.00; that for `Cc1cc(N)nc(C)c1CNC(=O)c1ccnc(Cn2cc3cc(Cl)ccc3cc2=O)c1` [Example 87, N-((6-amino-2,4-dimethylpyridin-3-yl)methyl)-2-((7-chloro-3-oxoisoquinolin-2(3H)-yl)methyl)isonicotinamide] was 6.00 to 7.00. `O=C(NCc1cc2c(Cl)c[nH]c2cc1F)c1ccnc(Cn2cc3cc(Cl)ccc3cc2=O)c1` [Example 88, 2-((7-chloro-3-oxoisoquinolin-2(3H)-yl)methyl)-N-((3-chloro-6-fluoro-1H-indol-5-yl)methyl)isonicotinamide]: the pIC50 under setting [1] is 6.00 to 7.00. As for `O=C(NCc1cc2c(Cl)c[nH]c2cc1F)c1ccnc(Cc2cc(F)c3ncc(Cl)cc3c2)c1` [Example 90, N-(3-chloro-6-fluoro-1H-indol-5-ylmethyl)-2-(3-chloro-8-fluoro-quinolin-6-ylmethyl)-isonicotinamide], the pIC50 under setting [1] was more than 7.00.

In the case of `COC(=O)c1cc(Cc2cc(C(=O)NCc3c(C)cc(N)nc3C)ccn2)cc2cc(Cl)cnc12` [Example 92, methyl 6-((4-(((6-amino-2,4-dimethylpyridin-3-yl)methyl)carbamoyl)pyridin-2-yl)methyl)-3-chloroquinoline-8-carboxylate], the pIC50 under setting [1] was more than 7.00. Take `Cc1cc(N)nc(C)c1CNC(=O)c1ccnc(Cc2cc(C(=O)O)c3ncc(Cl)cc3c2)c1` [Example 93, 6-((4-(((6-amino-2,4-dimethylpyridin-3-yl)methyl)carbamoyl)pyridin-2-yl)methyl)-3-chloroquinoline-8-carboxylic acid]: the pIC50 under setting [1] was more than 7.00.

Consider `Cc1cc(N)nc(C)c1CNC(=O)c1ccnc(Cc2cc(CO)c3ncc(Cl)cc3c2)c1` [Example 94, N-((6-amino-2,4-dimethylpyridin-3-yl)methyl)-2-((3-chloro-8-(hydroxymethyl)quinolin-6-yl)methyl)isonicotinamide], for which the negative-log IC50 (pIC50) under setting [1] was more than 7.00. `COC(=O)c1cc(Cc2cc(C(=O)NCc3ccc(N)nc3C)ccn2)cc2cc(Cl)cnc12` [Example 95, methyl 6-((4-(((6-amino-2-methylpyridin-3-yl)methyl)carbamoyl)pyridin-2-yl)methyl)-3-chloroquinoline-8-carboxylate]: the pIC50 under setting [1] is more than 7.00. With `Cc1nc(N)ccc1CNC(=O)c1ccnc(Cc2cc(C(=O)O)c3ncc(Cl)cc3c2)c1` [Example 96, 6-((4-(((6-amino-2-methylpyridin-3-yl)methyl)carbamoyl)pyridin-2-yl)methyl)-3-chloroquinoline-8-carboxylic acid], the pIC50 under setting [1] is 6.00 to 7.00. Still for that read-out and setting: the value for `Cc1nc(N)ccc1CNC(=O)c1ccnc(Cc2cc(CO)c3ncc(Cl)cc3c2)c1` [Example 97, N-((6-amino-2-methylpyridin-3-yl)methyl)-2-((3-chloro-8-(hydroxymethyl)quinolin-6-yl)methyl)isonicotinamide] was more than 7.00.

For the molecule `Cc1cc(N)[n+]([O-])c(C)c1CNC(=O)c1ccnc(Cc2ccc3ncc(Cl)cc3c2)c1` [Example 98, 6-amino-3-((2-((3-chloroquinolin-6-yl)methyl)isonicotinamido)methyl)-2,4-dimethylpyridine 1-oxide], the negative logarithm of the IC50 (pIC50) under setting [1] is 6.00 to 7.00. With `Cc1cc(N)nc(C)c1CNC(=O)c1ccnc(Cc2ccc3c(cc(Cl)c[n+]3[O-])c2)c1` [Example 99, 6-((4-(((6-amino-2,4-dimethylpyridin-3-yl)methyl)carbamoyl)pyridin-2-yl)methyl)-3-chloroquinoline 1-oxide], the negative-log IC50 (pIC50) under setting [1] was more than 7.00. Still for that read-out and setting: next, `Cc1nc(N)ccc1CNC(=O)c1ccnc(Cc2cc(Cl)c3ncc(Cl)cc3c2)c1` [Example 101, N-((6-amino-2-methylpyridin-3-yl)methyl)-2-((3,8-dichloroquinolin-6-yl)methyl)isonicotinamide]: more than 7.00.

(Values after patent US9611252B2 (LifeSci Pharmaceuticals, Inc., priority 2013, dated 2017).)
